Data as given in US11352352B2, “Aminopyrimidine compound, preparation method therefor and use thereof” (BEIJING ADAMADLE BIOTECHNOLOGY LIMITED LIABILITY COMPANY, priority 2017, dated 2022).

Key:
Assay in all cases: Cell proliferation inhibition experiment, CellTiter-Glo (CTG) method
Assay type in all cases: cell-based
NCI-H1975 = settings: for IC50: Homo sapiens, NCI-H1975, 72 h, NCI-H1975 cells, CTG, 3 days; for A-431/NCI-H1975 Selectivity: ratio of A-431 IC50 to NCI-H1975 IC50
Procedure, shortened: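 NCI-H1975 cells with viability above 90% by trypan blue were seeded at 90 μL per well in black 96-well plates and incubated overnight at 37° C., 5% CO2. Compounds were added at nine concentrations in triplicate, and viability was measured with CellTiter-Glo luminescence on EnVision. IC50 came from non-linear S-curve fitting in GraphPad Prism 5.0.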

PC-9 = PC-9 cells, 3 days
Procedure, shortened: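 Cells in log-phase growth (viability above 90% by trypan blue) were seeded at 90 μL per well in black-walled, clear-bottom 96-well plates and incubated overnight at 37° C., 5% CO2. A T0 plate was read the next day. Test compounds were added at nine concentrations in triplicate with a solvent control. Viability was measured by CellTiter-Glo luminescence on EnVision, and IC50 came from non-linear S-curve fitting in GraphPad Prism 5.0.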

A-431 = A-431 cells, 3 days
Procedure, shortened: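 Cells seeded overnight at 37 °C, 5% CO2, then treated with nine 3-fold dilutions in triplicate, top 30 μM for A-431 and 1.111 μM for NCI-H1975 and PC-9; solvent control. After 3 days, viability read by CellTiter-Glo luminescence; IC50 from non-linear sigmoidal fit of survival rate.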

| Structure (SMILES) | IC50 (NCI-H1975) [nM] | A-431/NCI-H1975 Selectivity (NCI-H1975) | IC50 (PC-9; Homo sapiens, PC-9, 72 h) [nM] | IC50 (A-431; Homo sapiens, A-431, 72 h) [nM] | IC50 (PC-9) [nM] | IC50 (A-431) [nM] |
| --- | --- | --- | --- | --- | --- | --- |
| C=CC(=O)Nc1cc(Nc2cc(-c3ccc4c(cnn4C)c3)ncn2)c(OC(F)F)cc1N1C[C@@H](C)N[C@@H](C)C1 [compound 266] | 10.1 | 92.9 | 24.8 | 938 |  |  |
| C=CC(=O)Nc1cc(Nc2cc(-c3ccc4c(cnn4C)c3)ncn2)c(OC)cc1N1CCN(C2CC2)CC1 [compound 143] | 51.6 | 19.2 | 23.5 | 988 |  |  |
| C=CC(=O)Nc1cc(Nc2cc(-c3ccc4c(cnn4CC)c3)ncn2)c(OCC)cc1N(C)CCN(C)C [compound 89] | 19.9 | 48.0 | 14.8 | 954 |  |  |
| C=CC(=O)Nc1c(N(C)CCN(C)CC)cc(OC)c(Nc2cc(-c3ccc4cnn(C)c4c3)ncn2)c1F [compound 201] | 24.5 | 54.9 | 21.1 | 1340 |  |  |
| C=CC(=O)Nc1c(N(C)CCN(C)C)cc(OC)c(Nc2nccc(-c3ccc4c(cnn4C)c3)n2)c1F [compound 261] | 37 | 56.8 | 40.8 | 2100 |  |  |
| C=CC(=O)Nc1cc(Nc2cc(-c3ccc4c(cnn4C)c3)ncn2)c(OC)cc1N1CCN(CC)CC1 [compound 18] | 11.1 | 88.8 | 8.9 | 983 |  |  |
| C=CC(=O)Nc1cc(Nc2cc(-c3ccc4c(cnn4C(C)C)c3)ncn2)c(OC)cc1N(C)C1CCN(C)CC1 [compound 85] | 72.3 | 25.4 | 56.7 | 1840 |  |  |
| C=CC(=O)Nc1cc(Nc2cc(-c3ccc4c(cnn4CC)c3)ncn2)c(OC)cc1N(C)C1CCN(C)C1 (centres unmarked) [compound 112] | 9 | 72.7 | 9.7 | 654 |  |  |
| C=CC(=O)Nc1cc(Nc2cc(-c3ccc4ncsc4c3)ncn2)c(OC)cc1N1CCN(C)CC1 [compound 9] | 52.6 | 14.6 | 36.2 | 767 |  |  |
| C=CC(=O)Nc1cc(Nc2cc(-c3ccc4cnn(C)c4c3)ncn2)c(OC(F)F)cc1N(C)CCN(C)C(C)C [compound 199] | 37.8 | 52.3 | 24.7 | 1980 |  |  |
| C=CC(=O)Nc1cc(Nc2cc(-c3cc4cnn(C)c4cc3F)ncn2)c(OC)cc1OCCN(C)C [compound 194] | 75.2 | 21.8 | 45.8 | 1640 |  |  |
| C=CC(=O)Nc1cc(Nc2cc(-c3ccc4c(cnn4C)c3)ncn2)c(OC(F)F)cc1OCCN(C)C(C)C [compound 187] | 53 | 45.4 | 46.8 | 2410 |  |  |
| C=CC(=O)Nc1cc(Nc2cc(-c3ccc4cnn(C)c4c3)ncn2)c(OC)cc1N(C)C1CCN(CC)CC1 [compound 227] | 79.6 | 30.6 | 90.7 | 2440 |  |  |
| C=CC(=O)Nc1cc(Nc2cc(-c3ccc4c(cnn4C(C)C)c3)ncn2)c(OC)cc1N(C)C1CCN(C2CCN(C)CC2)CC1 [compound 87] | 114 | 17.2 | 77.6 | 1960 |  |  |
| C=CC(=O)Nc1cc(Nc2cc(-c3ccc4c(cnn4C)c3)ncn2)c(OC)cc1N1CCN(C2CCN(C(C)=O)CC2)CC1 [compound 134] | 33.8 | 42.4 | 31.1 | 1430 |  |  |
| C=CC(=O)Nc1cc(Nc2cc(-c3ccc4cnn(C)c4c3)ncn2)c(OC)cc1N1CCN(CCOC)CC1 [compound 159] | 31.9 |  | 27.9 | 1530 |  |  |
| C=CC(=O)Nc1cc(Nc2cc(-c3ccc4c(cnn4C)c3)ncn2)c(OC)cc1N1CCC(N2CCOCC2)CC1 [compound 152] | 23.6 | 83.3 |  |  | 43.2 | 1970 |
| C=CC(=O)Nc1cc(Nc2cc(-c3ccc4c(cnn4C)c3)ncn2)c(OC)cc1N1C[C@@H](C)N[C@@H](C)C1 [compound 264] | 5.5 |  | 22.1 | 924 |  |  |
| C=CC(=O)Nc1cc(Nc2cc(-c3ccc4c(cnn4C)c3)ncn2)c(OC)cc1N1CCC(N(C)C)C1 (centres unmarked) [compound 284] | 26.3 | 25.5 | 13.4 | 670 |  |  |
| C=CC(=O)Nc1cc(Nc2cc(-c3ccc4c(cnn4C)c3)ncn2)c(OC)cc1N(C)C1CCN(C)CC1 [compound 35] | 13.2 |  | 16.4 | 1590 |  |  |

| Structure (SMILES) | IC50 (NCI-H1975) [nM] | A-431/NCI-H1975 Selectivity (NCI-H1975) | IC50 (PC-9; Homo sapiens, PC-9, 72 h) [nM] | IC50 (A-431; Homo sapiens, A-431, 72 h) [nM] | IC50 (PC-9) [nM] | IC50 (A-431) [nM] |
| --- | --- | --- | --- | --- | --- | --- |
| C=CC(=O)Nc1cc(Nc2cc(-c3ccc4ncsc4c3)ncn2)c(OC)cc1N(C)CCN(C)C [compound 63] | 4.1 | 130.7 | 6.5 | 540 |  |  |
| C=CC(=O)Nc1cc(Nc2nccc(-c3ccc4c(cnn4C)c3)n2)c(OC)cc1N(C)CCN(C)C(C)C [compound 257] | 58.6 | 35.3 | 42.7 | 2070 |  |  |
| C=CC(=O)Nc1cc(Nc2cc(-c3ccc4cnn(C)c4c3)ncn2)c(OC)cc1N1CCN(CC)[C@H](C)C1 [compound 49] | 85.6 | 17.2 | 88 | 1470 |  |  |
| C=CC(=O)Nc1cc(Nc2nccc(-c3ccc4c(cnn4C)c3)n2)c(OC)cc1N1CCC(N(CC)CC)CC1 [compound 262] | 124 | 24.1 | 52.7 | 2980 |  |  |
| C=CC(=O)Nc1cc(Nc2cc(-c3ccc4cnn(C)c4c3)ncn2)c(OC)cc1N1CC(C)N(C)C(C)C1 (centres unmarked) [compound 42] | 25.8 |  | 34.6 | 686 |  |  |
| C=CC(=O)Nc1cc(Nc2cc(-c3ccc4cnn(C)c4c3)ncn2)c(OC)cc1N1CCN(C2CCOCC2)CC1 [compound 46] | 82.8 | 15.1 | 32.7 | 1250 |  |  |
| C=CC(=O)Nc1cc(Nc2cc(-c3ccc4c(cnn4C)c3)ncn2)c(OC(F)F)cc1N1CCC(N2C[C@@H](C)O[C@@H](C)C2)CC1 [compound 148] | 28.7 | 46.9 | 31.9 | 1350 |  |  |
| C=CC(=O)Nc1cc(Nc2cc(-c3ccc4c(cnn4C)c3)ncn2)c(OC)cc1N(C)CCN(C)C(C)=O [compound 76] | 87.3 | 108.3 | 57.9 | 9450 |  |  |
| C=CC(=O)Nc1cc(Nc2nccc(-c3ccc4c(cnn4C)c3)n2)c(OC(F)F)cc1N1CCN(CCN(C)C)CC1 [compound 114] | 31.5 | 46.9 | 32.7 | 1480 |  |  |
| C=CC(=O)Nc1cc(Nc2cc(-c3ccc4c(cnn4C)c3)ncn2)c(OCC)cc1N(C)CCN(C)C(C)C [compound 139] | 43.1 | 26.8 | 57.9 | 1160 |  |  |
| C=CC(=O)Nc1cc(Nc2cc(-c3ccc4nn(C)cc4c3)ncn2)c(OC)cc1N(C)CCN(C)C [compound 7] | 11.1 | 11.6 | 10.7 | 129 |  |  |
| C=CC(=O)Nc1cc(Nc2cc(-c3ccc4c(cnn4C)c3)ncn2)c(OC(F)F)cc1OCCN1CCN(C)CC1 [compound 185] | 53.8 | 37.8 | 43.7 | 2030 |  |  |
| C=CC(=O)Nc1cc(Nc2cc(-c3ccc4c(cnn4C)c3)ncn2)c(OC(F)F)cc1OCCN(C)C [compound 171] | 26.2 | 28.4 | 38 | 743 |  |  |
| C=CC(=O)Nc1cc(Nc2cc(-c3ccc4cnn(C)c4c3)ncn2)c(OC(F)F)cc1N1CCC(N2CCOCC2)CC1 [compound 161] | 17.4 | 59.3 | 19.9 | 1030 |  |  |
| C=CC(=O)Nc1cc(Nc2nccc(-c3ccc4c(cnn4C)c3)n2)c(OC)cc1N1CCC(N2CCN(C)CC2)CC1 [compound 230] | 68.2 | 29.1 | 59.4 | 1980 |  |  |
| C=CC(=O)Nc1cc(Nc2cc(-c3ccc4c(cnn4CC)c3)ncn2)c(OC(F)F)cc1N(C)CCN(C)C [compound 92] | 9.3 | 82.1 | 13.1 | 764 |  |  |
| C=CC(=O)Nc1cc(Nc2cc(-c3ccc4c(cnn4C)c3)ncn2)c(OC)cc1N1CCN(C2CCOC2)CC1 (centres unmarked) [compound 214] | 19.7 | 77.6 | 16.7 | 1530 |  |  |
| C=CC(=O)Nc1cc(Nc2cc(-c3ccc4c(cnn4C)c3)ncn2)c(OC(C)C)cc1N(C)CCN(C)C [compound 75] | 24.3 | 61.7 | 13.6 | 1500 |  |  |
| C=CC(=O)Nc1cc(Nc2nccc(-c3ccc4c(cnn4C)c3)n2)c(OC(F)F)cc1N(C)CCN(C)C [compound 260] | 12.8 | 103.5 | 20.1 | 1320 |  |  |
